Results taken from patent publication US11964990B2, “1,3,4,7-tetrahydro-2H-pyrrolo[3′,2′:5,6]pyrido[2,3-b][1,4]oxazepine bcl-2 inhibitors” (AbbVie Inc., priority 2022, dated 2024).

How the values were obtained:
[1] = test system: RS4;11 cells; experiment: Cell viability assay (CellTiter-Glo) in RS4;11 cell line; type: cell-based; conditions: 24 hours, 10% Human Serum, 50% decrease in cell viability
Excerpt: (§1) The acute lymphoblastic leukemia (ALL) human cell line RS4;11 (ATCC, Manassas VA) was used as the primary human cell line to assess the cellular activity of compound of the present Examples in vitro and their efficacy in vivo. BH3 profiling, a mitochondrial assay that classifies blocks in the intrinsic apoptotic pathway, has shown that RS4;11 cells were highly dependent on Bcl-2 protein for survival and were sensitive to a Bcl-2 inhibitor (Blood. 2008; 111(4):2300-2309). […] The acute lymphoblastic leukemia cell line Molt-4, which is derived from immature T-lymphoid cells (T-ALL), was used as a counter screen assay.
(§2) Frozen RS4;11 or Molt-4 cells (ATCC, Manassas, VA, USA) were thawed overnight in RPMI 1640 media (Thermo Fisher Scientific, Waltham, MA, USA) supplemented with 1% penicillin/streptomycin (Thermo Fisher Scientific, Waltham, MA, USA), and 10% Human Serum (Sigma, St. Louis, MO, USA). 3000 Cells (0.1×10^6/mL) were seeded in each well of 384-well plate and were treated for 24 hours in a humidified chamber with 5% CO2. Cell viability was determined by CellTiter-Glo as described by the manufacturer's instructions (Promega Corporation, Madison, WI, USA). Responses were determined as a percentage of the control treated cells and the effective concentration (EC50) to induce a 50% decrease in cell viability were determined from sigmoidal dose-response curves using Dotmatics (Dotmatics Software Company, Bishops Stortford, Hertfordshire, England).

[2] = test system: Molt-4 cells; experiment: Cell viability counter screen assay (CellTiter-Glo) in Molt-4 cells; type: cell-based; conditions: 24 hours, 10% Human Serum, 50% decrease in cell viability
Excerpt: as §1, §2

Structure (SMILES) | EC50 [1] | EC50 [2]
CC1(C)CC(c2ccc(Cl)cc2)=C2CN3CCN(c4ccc(C(=O)NS(=O)(=O)c5ccc(OCC6CCOCC6)c([N+](=O)[O-])c5)c(N5CCCOc6nc7[nH]ccc7cc65)c4)C[C@H]3COCCCO[C@@H]2C1 [Example 46, 4-((4aS,10aR)-14-(4-chlorophenyl)-12,12-dimethyl-1,2,4a,5,8,9,10a,11,13,15-decahydro-7H,12H-benzo[f]pyrazino[2,1-c][1,8]dioxa[4]azacycloundecin-3(4H)-yl)-2-(3,4-dihydro-2H-pyrrolo[3′,2′:5,6]pyrido[2,3-b][1,4]oxazepin-1(7H)-yl)-N-((3-nitro-4-((tetrahydro-2H-pyran-4-yl)methoxy)phenyl)sulfonyl)benzamide] | 9.36 nM | > 10000 nM
CC1(C)CC(c2ccc(Cl)cc2)=C2CN3CCN(c4ccc(C(=O)NS(=O)(=O)c5ccc(NC[C@H]6CC[C@H](O)CO6)c([N+](=O)[O-])c5)c(N5CCCOc6nc7[nH]ccc7cc65)c4)C[C@H]3COCCCO[C@@H]2C1 [Example 12, 4-((4aS,10aR)-14-(4-chlorophenyl)-12,12-dimethyl-1,2,4a,5,8,9,10a,11,13,15-decahydro-7H,12H-benzo[f]pyrazino[2,1-c][1,8]dioxa[4]azacycloundecin-3(4H)-yl)-2-(3,4-dihydro-2H-pyrrolo[3′,2′:5,6]pyrido[2,3-b][1,4]oxazepin-1(7H)-yl)-N-((4-((((2R,5S)-5-hydroxytetrahydro-2H-pyran-2-yl)methyl)amino)-3-nitrophenyl)sulfonyl)benzamide] | 0.966 nM | 823 nM
CC1(C)CC(c2ccc(Cl)cc2)=C2CN3CCN(c4ccc(C(=O)NS(=O)(=O)c5ccc(NC[C@H]6C[C@@](O)(CF)C6)c([N+](=O)[O-])c5)c(N5CCCOc6nc7[nH]ccc7cc65)c4)C[C@H]3COCCCO[C@@H]2C1 [Example 8, 4-((4aS,10aR)-14-(4-chlorophenyl)-12,12-dimethyl-1,2,4a,5,8,9,10a,11,13,15-decahydro-7H,12H-benzo[f]pyrazino[2,1-c][1,8]dioxa[4]azacycloundecin-3(4H)-yl)-2-(3,4-dihydro-2H-pyrrolo[3′,2′:5,6]pyrido[2,3-b][1,4]oxazepin-1(7H)-yl)-N-((4-((((1r,3r)-3-(fluoromethyl)-3-hydroxycyclobutyl)methyl)amino)-3-nitrophenyl)sulfonyl)benzamide] | 3.61 nM | 7480 nM
CC1(C)CC(c2ccc(Cl)cc2)=C2CN3CCN(c4ccc(C(=O)NS(=O)(=O)c5ccc(OCC6(F)CCN(C7COC7)CC6)c(Cl)c5)c(N5CCCOc6nc7[nH]ccc7cc65)c4)C[C@H]3COCCCO[C@@H]2C1 [Example 9, N-(3-chloro-4-{[4-fluoro-1-(oxetan-3-yl)piperidin-4-yl]methoxy}benzene-1-sulfonyl)-4-[(4aS,10aR)-14-(4-chlorophenyl)-12,12-dimethyl-1,2,4a,5,8,9,11,12,13,15-decahydro-7H,10aH-pyrazino[2,1-g][1,5,8]benzodioxazacycloundecin-3(4H)-yl]-2-(3,4-dihydro-2H-pyrrolo[3′,2′:5,6]pyrido[2,3-b][1,4]oxazepin-1(7H)-yl)benzamide] | 7.96 nM | 5590 nM
CC1(C)CC(c2ccc(Cl)cc2)=C2CN3CCN(c4ccc(C(=O)NS(=O)(=O)c5cnc(OCC6(F)CCOCC6)c(Cl)c5)c(N5CCCOc6nc7[nH]ccc7cc65)c4)C[C@H]3COCCCO[C@@H]2C1 [Example 7, N-((5-chloro-6-((4-fluorotetrahydro-2H-pyran-4-yl)methoxy)pyridin-3-yl)sulfonyl)-4-((4aS,10aR)-14-(4-chlorophenyl)-12,12-dimethyl-1,2,4a,5,8,9,10a,11,13,15-decahydro-7H,12H-benzo[f]pyrazino[2,1-c][1,8]dioxa[4]azacycloundecin-3(4H)-yl)-2-(3,4-dihydro-2H-pyrrolo[3′,2′:5,6]pyrido[2,3-b][1,4]oxazepin-1(7H)-yl)benzamide] | 5.46 nM | > 10000 nM
CC1(C)CC(c2ccc(Cl)cc2)=C2CN3CCN(c4ccc(C(=O)NS(=O)(=O)c5ccc(NC[C@H]6C[C@](O)(C7CCC7)C6)c([N+](=O)[O-])c5)c(N5CCCOc6nc7[nH]ccc7cc65)c4)C[C@H]3COCCCO[C@@H]2C1 [Example 15, 4-((4aS,10aR)-14-(4-chlorophenyl)-12,12-dimethyl-1,2,4a,5,8,9,10a,11,13,15-decahydro-7H,12H-benzo[f]pyrazino[2,1-c][1,8]dioxa[4]azacycloundecin-3(4H)-yl)-2-(3,4-dihydro-2H-pyrrolo[3′,2′:5,6]pyrido[2,3-h][1,4]oxazepin-1(7H)-yl)-N-((4-((((1s,3s)-1-hydroxy-[1,1′-bi(cyclobutan)]-3-yl)methyl)amino)-3-nitrophenyl)sulfonyl)benzamide] | 5.64 nM | 2550 nM
CO[C@H]1C[C@@H](CNc2ccc(S(=O)(=O)NC(=O)c3ccc(N4CCN5CC6=C(c7ccc(Cl)cc7)CC(C)(C)C[C@H]6OCCCOC[C@@H]5C4)cc3N3CCCOc4nc5[nH]ccc5cc43)cc2[N+](=O)[O-])C1 [Example 24] | 4.9 nM | > 10000 nM

Continued by falling EC50 [1], values first:

EC50 [1] | Structure (SMILES) | EC50 [2]
3.24 nM | CN1CCC(Nc2ccc(S(=O)(=O)NC(=O)c3ccc(N4CCN5CC6=C(c7ccc(Cl)cc7)CC(C)(C)C[C@H]6OCCCOC[C@@H]5C4)cc3N3CCCOc4nc5[nH]ccc5cc43)cc2[N+](=O)[O-])CC1 [Example 31, 4-((4aS,10aR)-14-(4-chlorophenyl)-12,12-dimethyl-1,2,4a,5,8,9,10a,11,13,15-decahydro-7H,12H-benzo[f]pyrazino[2,1-c][1,8]dioxa[4]azacycloundecin-3(4H)-yl)-2-(3,4-dihydro-2H-pyrrolo[3′,2′:5,6]pyrido[2,3-b][1,4]oxazepin-1(7H)-yl)-N-((4-((1-methylpiperidin-4-yl)amino)-3-nitrophenyl)sulfonyl)benzamide] | 1220 nM
2.35 nM | CC1(C)CC(c2ccc(Cl)cc2)=C2CN3CCN(c4ccc(C(=O)NS(=O)(=O)c5cnc(OCC6(F)CCN(C7COC7)CC6)c(Cl)c5)c(N5CCCOc6nc7[nH]ccc7cc65)c4)C[C@H]3COCCCO[C@@H]2C1 [Example 4, N-((5-chloro-6-((4-fluoro-1-(oxetan-3-yl)piperidin-4-yl)methoxy)pyridin-3-yl)sulfonyl)-4-((4aS,10aR)-14-(4-chlorophenyl)-12,12-dimethyl-1,2,4a,5,8,9,10a,11,13,15-decahydro-7H,12H-benzo[f]pyrazino[2,1-c][1,8]dioxa[4]azacycloundecin-3(4H)-yl)-2-(3,4-dihydro-2H-pyrrolo[3′,2′:5,6]pyrido[2,3-b][1,4]oxazepin-1(7H)-yl)benzamide] | 2000 nM
1.66 nM | CC1(C)CC(c2ccc(Cl)cc2)=C2CN3CCN(c4ccc(C(=O)NS(=O)(=O)c5ccc(NCC6(F)CCN(C7COC7)CC6)c([N+](=O)[O-])c5)c(N5CCCOc6nc7[nH]ccc7cc65)c4)C[C@H]3COCCCO[C@@H]2C1 [Example 39, 4-((4aS,10aR)-14-(4-chlorophenyl)-12,12-dimethyl-1,2,4a,5,8,9,10a,11,13,15-decahydro-7H,12H-benzo[f]pyrazino[2,1-c][1,8]dioxa[4]azacycloundecin-3(4H)-yl)-2-(3,4-dihydro-2H-pyrrolo[3′,2′:5,6]pyrido[2,3-b][1,4]oxazepin-1(7H)-yl)-N-((4-(((4-fluoro-1-(oxetan-3-yl)piperidin-4-yl)methyl)amino)-3-nitrophenyl)sulfonyl)benzamide] | 453 nM
1.51 nM | CC1(C)CC(c2ccc(Cl)cc2)=C2CN3CCN(c4ccc(C(=O)NS(=O)(=O)c5ccc(NC[C@H]6C[C@](O)(CF)C6)c([N+](=O)[O-])c5)c(N5CCCOc6nc7[nH]ccc7cc65)c4)C[C@H]3COCCCO[C@@H]2C1 [Example 16, 4-((4aS,10aR)-14-(4-chlorophenyl)-12,12-dimethyl-1,2,4a,5,8,9,10a,11,13,15-decahydro-7H,12H-benzo[f]pyrazino[2,1-c][1,8]dioxa[4]azacycloundecin-3(4H)-yl)-2-(3,4-dihydro-2H-pyrrolo[3′,2′:5,6]pyrido[2,3-h][1,4]oxazepin-1(7H)-yl)-N-((4-((((1s,3s)-3-(fluoromethyl)-3-hydroxycyclobutyl)methyl)amino)-3-nitrophenyl)sulfonyl)benzamide] | 1260 nM
0.329 nM | CC1(C)CC(c2ccc(Cl)cc2)=C2CN3CCN(c4ccc(C(=O)NS(=O)(=O)c5ccc(NC[C@@H]6CC[C@@H](O)CO6)c([N+](=O)[O-])c5)c(N5CCCOc6nc7[nH]ccc7cc65)c4)C[C@H]3COCCCO[C@@H]2C1 [Example 27, 4-((4aS,10aR)-14-(4-chlorophenyl)-12,12-dimethyl-1,2,4a,5,8,9,10a,11,13,15-decahydro-7H,12H-benzo[f]pyrazino[2,1-c][1,8]dioxa[4]azacycloundecin-3(4H)-yl)-2-(3,4-dihydro-2H-pyrrolo[3′,2′:5,6]pyrido[2,3-h][1,4]oxazepin-1(7H)-yl)-N-((4-((((2S,5R)-5-hydroxytetrahydro-2H-pyran-2-yl)methyl)amino)-3-nitrophenyl)sulfonyl)benzamide] | 535 nM
